Measured values: ChEMBL document CHEMBL1955715 (Bioorg Med Chem Lett, 2012)
Active and inactive are the calls of the source. No cut-off for these calls is given here.

What was measured:
Rattus norvegicus [1] = assay: Wake promoting activity in EEG/EMG Sprague-Dawley rat model assessed as total time awake at 100 mg/kg, ip measured up to 3 hrs (reference value: 65 +/- 9 mins); conditions: route intraperitoneal
[2] = Solubility of the compound in water at pH 7.4; assay type: physicochemical
[3] = Metabolic stability in human liver S9 fraction assessed as compound remaining after 2 hrs; assay type: ADME, subcellular; conditions: read-out: Stability
[4] = target: T1, Sodium-dependent dopamine transporter (Rattus norvegicus, UniProt P23977); assay: Inhibition of rat DAT
T1 sequence (P23977 whole entry): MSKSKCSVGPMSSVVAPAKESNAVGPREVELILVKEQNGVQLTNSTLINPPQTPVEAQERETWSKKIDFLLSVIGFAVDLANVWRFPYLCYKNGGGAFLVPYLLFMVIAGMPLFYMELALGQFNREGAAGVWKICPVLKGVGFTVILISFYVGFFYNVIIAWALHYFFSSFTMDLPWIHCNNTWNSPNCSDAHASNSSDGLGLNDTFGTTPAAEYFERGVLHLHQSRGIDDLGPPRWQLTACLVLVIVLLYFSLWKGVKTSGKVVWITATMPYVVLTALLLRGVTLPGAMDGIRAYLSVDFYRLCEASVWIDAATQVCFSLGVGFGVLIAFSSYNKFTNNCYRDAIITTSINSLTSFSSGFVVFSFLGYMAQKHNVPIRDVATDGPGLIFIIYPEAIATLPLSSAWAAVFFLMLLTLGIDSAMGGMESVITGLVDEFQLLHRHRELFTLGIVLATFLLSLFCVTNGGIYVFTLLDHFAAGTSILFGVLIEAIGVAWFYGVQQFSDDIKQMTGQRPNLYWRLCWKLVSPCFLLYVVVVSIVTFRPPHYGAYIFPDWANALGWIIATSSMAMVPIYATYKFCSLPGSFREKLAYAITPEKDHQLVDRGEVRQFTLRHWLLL

[5] = target: T1, Sodium-dependent dopamine transporter; assay: Inhibition of rat DAT-mediated dopamine reuptake
Transporter = Transporter (Rattus norvegicus, UniProt Q63380); assay: Inhibition of rat NET-mediated norepinephrine reuptake
Transporter, sequence (Q63380 whole entry): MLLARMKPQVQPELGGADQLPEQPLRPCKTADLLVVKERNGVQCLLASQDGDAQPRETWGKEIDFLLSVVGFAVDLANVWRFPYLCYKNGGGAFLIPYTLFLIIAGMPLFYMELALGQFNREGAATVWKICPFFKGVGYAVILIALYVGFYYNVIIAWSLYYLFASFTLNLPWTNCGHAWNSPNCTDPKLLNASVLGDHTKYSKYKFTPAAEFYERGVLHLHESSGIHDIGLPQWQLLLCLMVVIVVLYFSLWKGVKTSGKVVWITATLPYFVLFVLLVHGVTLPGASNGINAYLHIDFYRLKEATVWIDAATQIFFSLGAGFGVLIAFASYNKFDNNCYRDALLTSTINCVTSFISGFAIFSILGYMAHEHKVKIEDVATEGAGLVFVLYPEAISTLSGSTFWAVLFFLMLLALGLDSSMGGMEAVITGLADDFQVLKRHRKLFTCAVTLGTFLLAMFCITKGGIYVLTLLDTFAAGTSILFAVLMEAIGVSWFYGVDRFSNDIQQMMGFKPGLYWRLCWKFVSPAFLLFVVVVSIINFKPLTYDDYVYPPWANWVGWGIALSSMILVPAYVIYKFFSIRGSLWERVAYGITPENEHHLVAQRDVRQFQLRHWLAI

[6] = target: Sodium-dependent serotonin transporter (Rattus norvegicus, UniProt P31652); assay: Inhibition of rat SERT-mediated serotonin reuptake
Sodium-dependent serotonin transporter, sequence (P31652 whole entry): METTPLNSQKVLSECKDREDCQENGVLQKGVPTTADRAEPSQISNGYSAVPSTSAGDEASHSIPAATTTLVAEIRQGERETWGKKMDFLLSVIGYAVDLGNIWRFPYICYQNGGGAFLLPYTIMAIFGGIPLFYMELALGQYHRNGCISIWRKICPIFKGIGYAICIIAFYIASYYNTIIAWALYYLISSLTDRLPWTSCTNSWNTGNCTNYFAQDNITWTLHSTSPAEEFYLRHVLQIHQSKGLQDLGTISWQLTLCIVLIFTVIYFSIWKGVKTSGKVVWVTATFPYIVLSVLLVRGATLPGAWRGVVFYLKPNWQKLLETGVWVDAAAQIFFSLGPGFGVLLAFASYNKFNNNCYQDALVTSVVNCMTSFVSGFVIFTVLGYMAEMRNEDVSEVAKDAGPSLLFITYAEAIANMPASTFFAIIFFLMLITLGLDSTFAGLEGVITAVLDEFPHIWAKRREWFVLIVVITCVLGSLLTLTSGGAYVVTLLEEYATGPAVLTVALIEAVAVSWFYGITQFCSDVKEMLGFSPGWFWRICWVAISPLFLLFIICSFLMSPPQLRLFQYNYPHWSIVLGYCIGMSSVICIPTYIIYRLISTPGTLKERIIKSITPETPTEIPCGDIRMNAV

CYP3A4 = CYP3A4 (Homo sapiens, UniProt P08684); assay: Inhibition of CYP3A4 at 10 uM; assay type: ADME
CYP3A4, sequence (P08684 whole entry): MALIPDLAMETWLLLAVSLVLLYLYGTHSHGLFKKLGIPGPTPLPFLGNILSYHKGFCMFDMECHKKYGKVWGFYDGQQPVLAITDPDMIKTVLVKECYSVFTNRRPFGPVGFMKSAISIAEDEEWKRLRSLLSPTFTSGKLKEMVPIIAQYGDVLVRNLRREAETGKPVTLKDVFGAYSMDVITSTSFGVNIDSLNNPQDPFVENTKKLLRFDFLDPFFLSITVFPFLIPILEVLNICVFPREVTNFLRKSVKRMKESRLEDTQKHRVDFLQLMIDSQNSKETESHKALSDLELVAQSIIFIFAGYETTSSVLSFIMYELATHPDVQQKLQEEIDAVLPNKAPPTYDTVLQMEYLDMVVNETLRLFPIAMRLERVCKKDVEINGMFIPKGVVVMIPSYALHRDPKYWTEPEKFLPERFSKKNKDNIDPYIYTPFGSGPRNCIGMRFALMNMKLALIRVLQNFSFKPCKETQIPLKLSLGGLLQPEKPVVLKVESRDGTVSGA

CYP2D6 = CYP2D6 (Homo sapiens, UniProt P10635); assay: Inhibition of CYP2D6 at 10 uM; assay type: ADME
CYP2D6, sequence (P10635 whole entry): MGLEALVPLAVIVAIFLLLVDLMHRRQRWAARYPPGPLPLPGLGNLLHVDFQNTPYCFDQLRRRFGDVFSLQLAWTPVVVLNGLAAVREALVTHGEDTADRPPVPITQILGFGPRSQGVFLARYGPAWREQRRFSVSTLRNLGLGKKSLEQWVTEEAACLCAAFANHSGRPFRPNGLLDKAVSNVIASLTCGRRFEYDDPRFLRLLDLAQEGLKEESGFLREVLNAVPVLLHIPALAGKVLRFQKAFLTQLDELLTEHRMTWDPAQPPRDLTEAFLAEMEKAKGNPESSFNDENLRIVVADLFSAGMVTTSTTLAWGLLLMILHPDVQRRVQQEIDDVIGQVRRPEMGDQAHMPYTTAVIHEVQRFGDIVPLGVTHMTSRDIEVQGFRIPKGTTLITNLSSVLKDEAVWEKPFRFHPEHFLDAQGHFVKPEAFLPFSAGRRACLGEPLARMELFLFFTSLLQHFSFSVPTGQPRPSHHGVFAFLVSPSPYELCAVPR

Cytochrome P450 2C19 = Cytochrome P450 2C19 (Homo sapiens, UniProt P33261); assay: Inhibition of CYP2C19; assay type: ADME
Cytochrome P450 2C19, sequence (P33261 whole entry): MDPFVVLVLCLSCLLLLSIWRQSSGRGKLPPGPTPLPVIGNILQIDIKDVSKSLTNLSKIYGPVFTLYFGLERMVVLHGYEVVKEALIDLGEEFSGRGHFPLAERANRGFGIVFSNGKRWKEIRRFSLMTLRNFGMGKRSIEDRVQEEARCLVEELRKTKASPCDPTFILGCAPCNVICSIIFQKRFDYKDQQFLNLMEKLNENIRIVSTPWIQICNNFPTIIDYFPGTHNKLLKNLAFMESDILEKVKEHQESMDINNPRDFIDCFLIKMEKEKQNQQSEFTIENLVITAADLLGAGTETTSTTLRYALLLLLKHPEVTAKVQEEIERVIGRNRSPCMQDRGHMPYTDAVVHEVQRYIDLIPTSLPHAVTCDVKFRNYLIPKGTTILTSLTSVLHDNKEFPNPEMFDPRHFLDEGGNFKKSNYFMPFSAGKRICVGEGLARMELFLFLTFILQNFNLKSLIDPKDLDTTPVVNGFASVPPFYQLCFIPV

Salmonella typhimurium = assay: Mutagenic activity in Salmonella Typhimurium by Mini-Ames test; assay type: toxicity, organism-based; conditions: salmonella enterica subsp. enterica serovar typhimurium
[7] = target: Voltage-gated inwardly rectifying potassium channel KCNH2 (Homo sapiens, UniProt Q12809); assay: Inhibition of human ERG at 10 uM
Voltage-gated inwardly rectifying potassium channel KCNH2, sequence (Q12809 whole entry): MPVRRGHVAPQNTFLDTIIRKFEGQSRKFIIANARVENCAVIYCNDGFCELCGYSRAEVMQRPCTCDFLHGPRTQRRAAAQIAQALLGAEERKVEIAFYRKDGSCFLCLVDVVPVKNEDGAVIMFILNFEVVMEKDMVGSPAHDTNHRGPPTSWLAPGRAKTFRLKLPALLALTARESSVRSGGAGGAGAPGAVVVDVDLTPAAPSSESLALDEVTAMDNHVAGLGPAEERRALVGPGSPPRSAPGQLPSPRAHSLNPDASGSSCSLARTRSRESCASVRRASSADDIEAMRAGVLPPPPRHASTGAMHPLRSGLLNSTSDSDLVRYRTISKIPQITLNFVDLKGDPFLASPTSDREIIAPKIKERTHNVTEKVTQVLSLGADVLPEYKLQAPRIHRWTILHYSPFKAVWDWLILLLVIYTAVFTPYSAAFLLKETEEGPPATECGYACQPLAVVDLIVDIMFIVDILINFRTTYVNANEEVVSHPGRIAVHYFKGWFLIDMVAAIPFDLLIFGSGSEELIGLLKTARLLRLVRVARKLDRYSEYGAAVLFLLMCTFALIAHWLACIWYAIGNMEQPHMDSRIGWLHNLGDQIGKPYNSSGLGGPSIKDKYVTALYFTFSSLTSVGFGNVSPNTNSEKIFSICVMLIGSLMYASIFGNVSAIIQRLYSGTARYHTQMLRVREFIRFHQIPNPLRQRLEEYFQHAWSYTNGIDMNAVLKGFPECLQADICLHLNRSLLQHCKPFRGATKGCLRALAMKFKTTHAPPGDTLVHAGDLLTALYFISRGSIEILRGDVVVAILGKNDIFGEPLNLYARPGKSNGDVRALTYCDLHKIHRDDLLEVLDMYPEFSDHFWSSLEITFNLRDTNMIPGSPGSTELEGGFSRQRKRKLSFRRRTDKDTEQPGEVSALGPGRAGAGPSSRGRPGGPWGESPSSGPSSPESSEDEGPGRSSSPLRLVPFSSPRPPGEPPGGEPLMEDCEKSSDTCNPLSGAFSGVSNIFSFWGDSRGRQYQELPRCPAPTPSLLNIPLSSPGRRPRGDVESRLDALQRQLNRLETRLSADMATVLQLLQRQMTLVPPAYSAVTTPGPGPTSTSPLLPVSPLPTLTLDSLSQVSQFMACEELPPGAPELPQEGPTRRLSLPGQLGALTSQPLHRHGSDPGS

Rattus norvegicus [8] = assay: Wake promoting activity in po dosed EEG/EMG Sprague-Dawley rat model assessed as slow wave sleep and rapid eye movement sleep; assay type: functional, organism-based
Plasma = assay: Plasma concentration in human; assay type: ADME, cell-free

SMILES: NC(=O)C[S+]([O-])Cc1ccccc1-c1ccccc1 (stereo not drawn)
- Time (Rattus norvegicus [1]): 119 min

SMILES: NC(=O)C[S+]([O-])Cc1ccccc1-c1ccccc1F (stereo not drawn)
- Time (Rattus norvegicus [1]): 64 min

SMILES: COc1ccccc1-c1ccccc1C[S+]([O-])CC(N)=O (stereo not drawn)
- Time (Rattus norvegicus [1]): 86 min

SMILES: NC(=O)C[S+]([O-])Cc1ccccc1-c1ccccc1Cl (stereo not drawn)
- Time (Rattus norvegicus [1]): 49 min

SMILES: N#Cc1cccc(-c2ccccc2C[S+]([O-])CC(N)=O)c1 (stereo not drawn)
- Time (Rattus norvegicus [1]): 99 min

SMILES: NC(=O)C[S+]([O-])Cc1ccccc1-c1cccc(C(N)=O)c1 (stereo not drawn)
- Time (Rattus norvegicus [1]): 62 min

SMILES: NC(=O)C[S+]([O-])Cc1ccccc1-c1cccc(Cl)c1 (stereo not drawn)
- Time (Rattus norvegicus [1]): 106 min

SMILES: NC(=O)C[S+]([O-])Cc1ccccc1-c1ccc(F)cc1 (stereo not drawn)
- Time (Rattus norvegicus [1]): 147 min

SMILES: NC(=O)C[S+]([O-])Cc1ccccc1-c1ccc(Br)cc1 (stereo not drawn)
- Time (Rattus norvegicus [1]): 174 min

SMILES: Cc1ccc(-c2ccccc2C[S+]([O-])CC(N)=O)cc1 (stereo not drawn)
- Time (Rattus norvegicus [1]): 146 min

SMILES: NC(=O)C[S+]([O-])Cc1ccccc1-c1ccc(OC(F)(F)F)cc1 (stereo not drawn)
- Time (Rattus norvegicus [1]): 108 min

SMILES: CC(=O)c1ccc(-c2ccccc2C[S+]([O-])CC(N)=O)cc1 (stereo not drawn)
- Time (Rattus norvegicus [1]): 77 min

SMILES: N#Cc1ccc(-c2ccccc2C[S+]([O-])CC(N)=O)cc1 (stereo not drawn)
- Time (Rattus norvegicus [1]): 65 min

SMILES: Cc1ccccc1-c1cccc(C[S+]([O-])CC(N)=O)c1 (stereo not drawn)
- Time (Rattus norvegicus [1]): 117 min

SMILES: NC(=O)C[S+]([O-])Cc1cccc(-c2ccc(Cl)cc2)c1 (stereo not drawn)
- Time (Rattus norvegicus [1]): 96 min

SMILES: NC(=O)C[S+]([O-])Cc1ccc(-c2ccccc2)cc1 (stereo not drawn)
- Time (Rattus norvegicus [1]): 100 min

SMILES: NC(=O)C[S+]([O-])Cc1ccc(-c2ccc(Cl)cc2)cc1 (stereo not drawn)
- Time (Rattus norvegicus [1]): 92 min

SMILES: NC(=O)C[S+]([O-])Cc1ccccc1-c1ccc(Cl)cc1 (racemic)
- solubility [2]: > 0.1 mg/mL
- remaining at 2 h [3]: 94%
- IC50 [4]: 0.6 µM
- IC50 [5]: 0.83 µM
- IC50 (Transporter): 10 µM
- IC50 [6]: > 300 µM
- inhibition at 10 µM (CYP3A4): < 10%
- inhibition at 10 µM (CYP2D6): < 10%
- IC50 (Cytochrome P450 2C19): 19 µM
- Activity (Salmonella typhimurium): Non-toxic
- inhibition (INH) [7]: Not Active
- Activity (Rattus norvegicus [8]): Active
- Time (Rattus norvegicus [1]): 176 min

SMILES: NC(=O)C[S+]([O-])C(c1ccccc1)c1ccccc1 (stereo not drawn) [MODAFINIL]
- concentration (Plasma): > 30 µM
- solubility [2]: > 0.1 mg/mL
- remaining at 2 h [3]: 77%
- inhibition at 10 µM (CYP3A4): < 10%
- inhibition at 10 µM (CYP2D6): < 10%
- IC50 (Cytochrome P450 2C19): 11 µM
- Activity (Salmonella typhimurium): Non-toxic
- Time (Rattus norvegicus [1]): 117 min
